# Experimental data reported in PMC6017089, “Discovery of a Manduca sexta Allatotropin Antagonist from a Manduca sexta Allatotropin Receptor Homology Model” (Molecules : A Journal of Synthetic Chemistry and Natural …, 2018).
# “And” between values parts separate entries of the source, which are not always exact repeats. Equal entries are not always repeated. “Also recorded” adds a separate entry of the source. Where two headings read alike, the source gives them in different places. Non-standard residues stand in square brackets, D forms with d. Residues, ends and D or L forms follow the SMILES beside them. No end group written: not given here. *: point of attachment. Phe(4-Cl) = N[C@@H](Cc1ccc(Cl)cc1)C(=O)O; Phe(4-Me) = Cc1ccc(C[C@H](N)C(=O)O)cc1; Ala(cPr) = N[C@@H](CC1CC1)C(=O)O; Isobutyryl = CC(C)C(=O)*
# Columns and labels:
# [1] = target: T1, corpora allata (CA) of adult female M. sexta (Manduca sexta, UniProt F1CZQ1); assay: Stimulation of JH biosynthesis in vitro by corpora allata; type: cell-based; conditions: for Stimulation of JH Biosynthesis EC50 (95% CI) / EC50: pair of CA with corpora cardiaca from day 3 females, 3 h at 30 °C in medium 199 pH 7.2, total JH II + JH III by GC-MS/MS, 9–13 repeats per concentration, 95% CI in brackets; for Stimulation of JH Biosynthesis: Stimulation at 1 μM: peptide 1 μM, CA from day 3 females, 3 h at 30 °C, mean ± SEM, repeat number in brackets, versus control CA without peptide; for fold less potent than Manse-AT (EC50, stimulation of JH biosynthesis): ratio of EC50 values to Manse-AT
# T1 sequence (F1CZQ1 1-457): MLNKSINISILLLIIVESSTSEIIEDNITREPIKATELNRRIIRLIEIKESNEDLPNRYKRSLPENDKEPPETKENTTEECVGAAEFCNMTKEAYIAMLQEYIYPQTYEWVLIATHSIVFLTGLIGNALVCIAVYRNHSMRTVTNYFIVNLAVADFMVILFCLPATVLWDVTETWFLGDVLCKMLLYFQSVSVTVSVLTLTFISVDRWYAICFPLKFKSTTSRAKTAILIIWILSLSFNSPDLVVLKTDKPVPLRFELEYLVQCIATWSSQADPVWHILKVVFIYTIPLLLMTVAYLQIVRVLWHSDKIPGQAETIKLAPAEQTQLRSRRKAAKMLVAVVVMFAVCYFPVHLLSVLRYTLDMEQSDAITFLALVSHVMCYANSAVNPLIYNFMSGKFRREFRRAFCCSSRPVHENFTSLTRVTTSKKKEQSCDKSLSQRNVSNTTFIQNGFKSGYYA
# Procedure: (§1) On the day of adult emergence (day 0), females were marked and maintained in the wooden chamber until used. The assays for JH biosynthesis were performed using CA from day 3 females. A pair of CA with corpora cardiaca attached were incubated for 3 h at 30 °C in 100 µL of medium 199 (GIBCO) with Hanks’ salts, L-glutamine, 25 mM HEPES buffer (pH 7.2) and 2% Ficoll in the dark with gentle shaking. Compounds were dissolved in medium 199 for assay as described previously and used on the same day that the peptides were prepared. After incubation, 200 µl n-hexane containing 20 ng of citronellol as an internal standard was mixed with the incubation medium and the mixture was centrifuged at 2500× g for 5 min. The organic phases (upper layer) were removed and transferred to the analyzed vials. For M. sexta, it is known that JH II and JH III are predominantly made in adult (they contribute 99% of total JH, together). The change of total JH II and JH III titer was used to estimate the effects of JH biosynthesis in this study. The quantitative assay for JH II and JH III titer was determined by GC-MS/MS as described previously. The retention time of JH II and JH III was 11.16 min and 10.36 min, respectively. The quantification transition for JH II was 107→105.4 (collsion energy: 45 eV). Its confirmation transitions were 81→79.6 (collsion energy: 40 eV), 121→119 (collsion energy: 40 eV), 121→104.9 (collsion energy: 15 eV) and 121→92.9 (collsion energy: 10 eV), respectively. For JH III, the quantification transition was […] (collsion energy: 10 eV), the confirmation transitions were 81→79.1 (collsion energy: 5 eV), 94.9→67.1 (collsion energy: 10 eV), 120.9→93 (collsion energy: 10 eV) and 120.9→105.1 (collsion energy: 15 eV), respectively. Compounds were dissolved in medium 199 for assay and used on the same day that the peptides were prepared. Each data point on the dose-response figure represents replicate incubations of 9–13 experimental CA compared to control CA (i.e., no peptide added). EC50 (stimulator concentration50 defined as the concentration of stimulator that provokes a response halfway between the baseline and maximum response) values of Manse-AT and analogs were calculated from the dose-response curves.
# (§2) Data presented as percentages were log-transformed before statistical analyses. Data were analysed using a one-way analysis of variance (ANOVA) with a Dunnett’s multiple comparison test as the post hoc determination of significance using Prism Graph Pad version 5.0 (GraphPad Software, San Diego, CA, USA). Dose-response curves were also prepared using the computer program GraphPad Prism. Values are expressed as mean ± standard errors (S.E.M.) with N indicating the number of samples measured.
# [2] = target: T2, corpora allata (CA) of adult female M. sexta stimulated with Manse-AT (Manduca sexta, UniProt F1CZQ1); type: cell-based
# T2 sequence (F1CZQ1 1-457): T1 sequence (F1CZQ1 1-457)
# Procedure: as §1
# Antagonistic effects of Manse-AT antagonists were measured with the compound mixture solutions (varying concentrations of the antagonist added together with Manse-AT) compared with the stimulation effects of Manse-AT. Dose response curves of antagonist on the inhibition of JH stimulation of Manse-AT was obtained using different concentrations of antagonist mixed with 1 nM Manse-AT (Supplementary Materials, Figure S1). Each data point on the dose-response figure was calculated using the Formula (1). (RManse-AT − RMixture)/(RManse-AT − RControl) (1)
# RManse-AT is the average JH biosynthesis rate of 1 nM Manse-AT, RMixture is the rate of mixture contained different concentration antagonist and 1 nM Manse-AT, RControl is the average rate of medium without any peptides.
# as §2
# [3] = read-out: Antagonistic Effects on JH Biosynthesis IC50 (95% CI); antagonist at varying concentrations mixed with 1 nM Manse-AT; CA from day 3 females, 3 h at 30 °C; JH II + JH III by GC-MS/MS; 9–13 repeats per concentration; 95% CI in brackets
# [4] = ratio of IC50 values to Manse-AT (10–13)
# [5] = antagonist at varying concentrations mixed with 1 nM Manse-AT; CA from day 3 females, 3 h at 30 °C; JH II + JH III by GC-MS/MS; 9–13 repeats per concentration; 95% CI in brackets
compound,measurement,setting,value
C[C@H](N)C(=O)N[C@@H](CCCNC(=N)N)C(=O)NCC(=O)N[C@@H](Cc1ccccc1)C(N)=O [Manse-AT (10–13)] (H-ARGF-NH2),Stimulation of JH Biosynthesis EC50 (95% CI),[1],cannot be calculated; also recorded: No effect
same,Stimulation of JH Biosynthesis: Stimulation at 1 μM,[1],8.1± 17.6 (13) %
same,IC50,[2]; [3],0.9 nM
N=C(N)NCCC[C@H](NC(=O)CN)C(=O)NCC(=O)N[C@@H](Cc1ccccc1)C(N)=O [analog 1] (H-GRGF-NH2),IC50,[2]; [3],1.2 nM
CC(C)C[C@H](N)C(=O)N[C@@H](CCCNC(=N)N)C(=O)NCC(=O)N[C@@H](Cc1ccccc1)C(N)=O [analog 2] (H-LRGF-NH2),IC50,[2]; [3],35.4 nM
CC(C)C(=O)N[C@@H](CCCNC(=N)N)C(=O)NCC(=O)N[C@@H](Cc1ccccc1)C(N)=O [analog 3] (Isobutyryl-Arg-Gly-Phe-NH2),IC50,"[2]; antagonist at varying concentrations mixed with 1 nM Manse-AT; CA from day 3 females, 3 h at 30 °C; JH II + JH III by GC-MS/MS; 9–13 repeats per concentration; 95% CI in brackets; read-out: Antagonistic Effects on JH Biosynthesis IC50 (95% CI)",26.1 nM
same,"fold less active than the lead Manse-AT (10–13) (IC50, antagonistic effect)",[2]; [4],~30 fold
C[C@H](N)C(=O)N[C@@H](CCCNC(=N)N)C(=O)N[C@@H](C)C(=O)N[C@@H](Cc1ccccc1)C(N)=O [analog 7] (H-ARAF-NH2),IC50,[2]; [3],17.5 nM
C[C@H](N)C(=O)N[C@@H](CCCNC(=N)N)C(=O)N[C@@H](CC1CC1)C(=O)N[C@@H](Cc1ccccc1)C(N)=O [analog 8] (H-AR[Ala(cPr)]F-NH2),"fold less active than the lead Manse-AT (10–13) (IC50, antagonistic effect)",[2]; [4],~1145 fold
C[C@H](N)C(=O)N[C@@H](CCCNC(=N)N)C(=O)NCC(=O)N[C@@H](Cc1ccc(O)cc1)C(N)=O [analog 10] (H-ARGY-NH2),IC50,[2]; [3],1 nM
Cc1ccc(C[C@H](NC(=O)CNC(=O)[C@H](CCCNC(=N)N)NC(=O)[C@H](C)N)C(N)=O)cc1 [analog 11] (H-ARG[Phe(4-Me)]-NH2),IC50,[2]; [3],8.4 nM
C[C@H](N)C(=O)N[C@@H](CCCNC(=N)N)C(=O)NCC(=O)N[C@@H](Cc1ccc(Cl)cc1)C(N)=O [analog 12] (H-ARG[Phe(4-Cl)]-NH2),IC50,[2]; [3],9.4 nM
AMMTARGF-NH2 [Manse-AT (6–13) [Ala^1]],Stimulation of JH biosynthesis at 10 µM,"[1]; concentration of 10 µM, adult female CA in vitro",completely inactive
same,Stimulation of JH Biosynthesis EC50 (95% CI),[1],No effect
"Ala-Ala-Gly-Phe-NH2 [analog 5, Manse-AT (10–13) analog, Arg replaced with Ala]",Antagonistic Effects on JH Biosynthesis IC50 (95% CI),[2]; [5],no antagonistic effect
"Ala-Arg-Gly-Ala-NH2 [analog 9, Manse-AT (10–13) analog, Phe replaced with Ala]",Antagonistic Effects on JH Biosynthesis IC50 (95% CI),[2]; [5],inactive; also recorded: No effect
"Ala-Leu-Gly-Phe-NH2 [analog 6, Manse-AT (10–13) analog, Arg replaced with Leu]",Antagonistic Effects on JH Biosynthesis IC50 (95% CI),[2]; [5],no antagonistic effect
"Arg-Gly-Phe-NH2 [Manse-AT (11–13), truncated tripeptide analog of Manse-AT]",Stimulation of JH Biosynthesis EC50 (95% CI),[1],cannot be calculated; also recorded: No effect
same,Stimulation of JH Biosynthesis: Stimulation at 1 μM,[1],8.3 ± 16.4 (9) %
same,Antagonistic Effects on JH Biosynthesis IC50 (95% CI),[2]; [5],did not possess any antagonistic effect; also recorded: No effect
"GFKNVEMMTARGF-NH2 [Manse-AT, Manduca sexta allatotropin]",EC50,[1],0.9 nM
same,Stimulation of JH Biosynthesis: Stimulation at 1 μM,[1],426.6 ± 86.3 (9) %
H-EMMTARGF-NH2 [Manse-AT (6–13)],EC50,[1],18.4 nM
same,Stimulation of JH Biosynthesis: Stimulation at 1 μM,[1],600% and 600.5 ± 98.5 (9) %
same,"fold less potent than Manse-AT (EC50, stimulation of JH biosynthesis)",[1],about 20 fold
H-MMTARGF-NH2 [Manse-AT (7–13)],EC50,[1],180 nM and 228 nM
same,Stimulation of JH Biosynthesis: Stimulation at 1 μM,[1],232.9% and 232.9 ± 33.7 (9) %
same,"fold less potent than Manse-AT (EC50, stimulation of JH biosynthesis)",[1],200 fold
H-MTARGF-NH2 [Manse-AT (8–13)],EC50,[1],2490 nM
same,Stimulation of JH Biosynthesis: Stimulation at 1 μM,[1],133.1 ± 22.3 (9) %
"TARGFa [Manse-AT (9–13), truncated analog of Manse-AT]",Stimulation of JH Biosynthesis EC50 (95% CI),[1],cannot be calculated; also recorded: No effect
same,Stimulation of JH Biosynthesis: Stimulation at 1 μM,[1],10.6 ± 21.0 (11) %
